Experimental data published in patent EP1894572B1, “THERAPEUTIC AGENT AND/OR PROPHYLACTIC AGENT FOR NEUROGENIC PAIN” (Asahi Kasei Pharma Corporation, priority 2005, dated 2013).
Where two headings read alike, the source gives them in different places. Positions of bridges follow the written chain, without caps; N, C: chain ends. Non-standard residues stand in square brackets, D forms with d. Residues, ends and D or L forms follow the SMILES beside them. Asu = N[C@@H](CCCCCC(=O)O)C(=O)O

Experiments:
[1] = rat, in vivo
[2] = rat, in vivo; remark: listed apart in the source
Method: Using normal rats (each 4 rats) which were in the same week old in initiation of administration of elcatonin as in Examples 1 and 2, dose of elcatonin not varying serum calcium value was examed in the case of single subcutaneous administration (administered over 10 seconds). […] Further, the same test was conducted excepting that blood collection was carried out 30 minutes after the administration. Measurement of serum calcium value was conducted using calcium C-test wako (Wako).

[3] = rat, in vivo; remark: listed apart in the source
[4] = Blood retention time after intermittent administration; format: in vivo
Method: From Comparative Example 1 described later, it has been considered that an analgesic action by intermittent administration of calcitonin is affected by accumulation of an effect in each administration. The blood retention time by intermittent administration is about 2 hours. Therefore, also included in the range of the present invention is an administration method in which continuous administration of 2 hours or more and less than 8 hours is repeated and accumulated duration of continuous administration within 24 hours is 8 hours or more.

[5] = human, in vivo
[6] = cited from earlier work
[7] = tested on: chronic constriction injury model (CCI model); experiment: CCI model, Randall Selitto method, intravenous continuous drip; format: in vivo, rat; details: neuropathic pain; after effect once manifested
Method: Preparing of the CCI model and elcatonin administration initiation period were the same as in Example 1. A cannulation was performed on cervical vein, and on 2nd day after cannulation, elcatonin (0.75 U/kg/week) was administered by intravenous continuous drip at 1 mL/body/24 hours, and withdrawal pressure by Randall Slitto method was measured 4, 8, 12 and 24 hours after.

Row | serum calcium value relative to normal value ([2]; sc) | Molecule | body weight [1] | body weight increase [1] | serum calcium at effective dose on neuropathic pain in intermittent administration [2] | serum calcium concentration [3] | blood retention time [4] | calcitonin dose altering serum calcium values in humans [5] [mU/kg/second] | serum calcium ([6]; bone metastasis cancer patient, s.c. 400 U/man/day mixed into morphine continuous administration) | serum calcium ([6]; renal osteopathy patient, drip intravenous 40 U/man/5 hours) | continuation of analgesic effect during the drug withdrawal period [7]
1 | below a normal value | CC(C)C[C@H](NC(=O)[C@H](CCCCN)NC(=O)CNC(=O)[C@H](CC(C)C)NC(=O)[C@@H](NC(=O)[C@@H]1CCCCCC(=O)N[C@@H](CO)C(=O)N[C@@H](CC(N)=O)C(=O)N[C@@H](CC(C)C)C(=O)N[C@@H](CO)C(=O)N[C@@H]([C@@H](C)O)C(=O)N1)C(C)C)C(=O)N[C@@H](CO)C(=O)N[C@@H](CCC(N)=O)C(=O)N[C@@H](CCC(=O)O)C(=O)N[C@@H](CC(C)C)C(=O)N[C@@H](Cc1c[nH]cn1)C(=O)N[C@@H](CCCCN)C(=O)N[C@@H](CC(C)C)C(=O)N[C@@H](CCC(N)=O)C(=O)N[C@H](C(=O)N[C@@H](Cc1ccc(O)cc1)C(=O)N1CCC[C@H]1C(=O)N[C@@H](CCCNC(=N)N)C(=O)N[C@H](C(=O)N[C@@H](CC(=O)O)C(=O)N[C@H](C(=O)NCC(=O)N[C@@H](C)C(=O)NCC(=O)N[C@H](C(=O)N1CCC[C@H]1C(N)=O)[C@@H](C)O)C(C)C)[C@@H](C)O)[C@@H](C)O [elcatonin, 1-butylic acid-7-(L-2-aminobutylic acid)-26-L-aspartic acid-27-L-valine-29-L-alaninecalcitonin] (SNLST[Asu]VLGKLSQELHKLQTYPRTDVGAGTP-NH2; lactam N-6) | no change in body weight was found | suppression of body weight increase became remarkable | lowered to normal value (8.5 to 10.5 mg/dl) or less | did not affect serum calcium amount at all |  |  |  |  | 
2 |  | calcitonin |  |  |  |  | about 2 hours | 0.093 | a significant decrease in serum calcium is recognized | no significant decrease in serum calcium is recognized | continues for at least one week
